Test results from US20250353858A1, “CONDENSED HETEROCYCLIC COMPOUNDS AS INHIBITOR OF DIACYLGLYCEROL KINASES” (BEONE MEDICINES I GMBH, priority 2023, published 2025).

Experiments:
DGKα = DGKα (Homo sapiens (Human), UniProt P23743); assay: Biochemical DGK IC50 assay (ADP-Glo, lipid micelle substrate), DGKα; conditions: full length DGKα […], ATP 140 μM, DAG 80 μM; further: full length DGKα 7.5 nM
Protocol: (§1) Enzymatic reactions of DGKζ, DGKα and DGKδ were performed using ADP-Glo assay with lipid micelle substrate. […] Full length DGKα (D21-10BG, SignalChem) and full length DGKδ (D23-10G, SignalChem) were purchased. Lipid micelle was prepared by dissolving DAG (Sigma, 317505-10MG) and PS (Sigma, P7769-100MG) with chloroform which was furtherly removed by rotary evaporation. The resulted product was resuspended in buffer containing 25 mM HEPES pH 7.0, 0.5 mM EDTA and 160 mM Octyl β-D glucopyranoside by vigorous mixing and ultrasonic (IID, Scientz).
(§2) The inhibition activities testing for the compound disclosed herein were carried out at room temperature in assay buffer containing 50 mM HEPES, 10 mM MgCl2, 0.01% BSA, 0.1 mM Na3VO4, 0.005% Tween-20 and 0.01 mM CaCl2. Compounds in DMSO were dispensed into wells of a black 384 well plate (Corning 4514) using D300e digital dispenser (Tecan). […] 3 μL 2× enzyme solution was added to wells. […] After 1 hour reaction, 5 μL ADP-Glo reagent (Promga V9101) was added and incubated for 40 minutes. 10 μL Kinase Detection reagent was added and incubated for 30 minutes. Luminescence was measured on a microplate reader (PHERAstar FSX, BMG labtech). The IC50s are calculated based on inhibition of enzyme activity in the presence of increasing concentrations of compounds.

DGKζ = DGKζ (Homo sapiens (Human), UniProt Q13574); assay: Biochemical DGK IC50 assay (ADP-Glo, lipid micelle substrate), DGKζ; conditions: full length DGKζ 0.5 nM, ATP 140 μM, DAG 80 μM
Protocol: as §1, §2
Human His-TEV-DGK-zeta-pFastBac1 and human baculovirus samples was generated using the Bac-to-Bac baculovirus expression system (Invitrogen) according to the manufacturer's protocol. The DNA used for expression of DGK-zeta, have SEQ ID Nos: 1. Baculovirus amplification was achieved using infected SF9 cells at 1:2000 virus/cells ratios, and grown for 96 hours at 27° C. post-transfected.
Full length human DGKζ produced as described above, was purified from Sf9 baculovirus-infected insect cell paste. The cells were lysed using sonication method, and the lysates were clarified by centrifugation.

Chain of DGKα (P23743 whole entry): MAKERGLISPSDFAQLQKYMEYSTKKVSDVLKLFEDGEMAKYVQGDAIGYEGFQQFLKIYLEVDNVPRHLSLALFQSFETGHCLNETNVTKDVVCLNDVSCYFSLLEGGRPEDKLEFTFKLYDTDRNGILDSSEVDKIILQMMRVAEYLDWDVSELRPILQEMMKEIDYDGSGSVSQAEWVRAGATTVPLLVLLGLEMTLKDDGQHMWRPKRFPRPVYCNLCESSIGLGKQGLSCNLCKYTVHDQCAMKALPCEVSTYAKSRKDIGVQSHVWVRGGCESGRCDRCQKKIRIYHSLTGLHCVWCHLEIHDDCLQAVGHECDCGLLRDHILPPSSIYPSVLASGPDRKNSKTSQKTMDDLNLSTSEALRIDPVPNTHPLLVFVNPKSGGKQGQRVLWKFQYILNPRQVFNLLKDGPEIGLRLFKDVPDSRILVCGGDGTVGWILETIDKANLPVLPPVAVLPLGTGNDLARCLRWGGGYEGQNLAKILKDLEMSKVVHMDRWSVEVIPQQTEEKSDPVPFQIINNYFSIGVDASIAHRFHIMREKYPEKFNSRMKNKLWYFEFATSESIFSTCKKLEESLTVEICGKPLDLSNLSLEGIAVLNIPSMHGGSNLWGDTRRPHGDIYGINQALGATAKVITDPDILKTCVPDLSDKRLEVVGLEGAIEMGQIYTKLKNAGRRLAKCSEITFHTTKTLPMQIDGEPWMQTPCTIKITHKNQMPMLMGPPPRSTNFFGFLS
Chain of DGKζ (Q13574 other isoform, or with tags, fused parts or gaps): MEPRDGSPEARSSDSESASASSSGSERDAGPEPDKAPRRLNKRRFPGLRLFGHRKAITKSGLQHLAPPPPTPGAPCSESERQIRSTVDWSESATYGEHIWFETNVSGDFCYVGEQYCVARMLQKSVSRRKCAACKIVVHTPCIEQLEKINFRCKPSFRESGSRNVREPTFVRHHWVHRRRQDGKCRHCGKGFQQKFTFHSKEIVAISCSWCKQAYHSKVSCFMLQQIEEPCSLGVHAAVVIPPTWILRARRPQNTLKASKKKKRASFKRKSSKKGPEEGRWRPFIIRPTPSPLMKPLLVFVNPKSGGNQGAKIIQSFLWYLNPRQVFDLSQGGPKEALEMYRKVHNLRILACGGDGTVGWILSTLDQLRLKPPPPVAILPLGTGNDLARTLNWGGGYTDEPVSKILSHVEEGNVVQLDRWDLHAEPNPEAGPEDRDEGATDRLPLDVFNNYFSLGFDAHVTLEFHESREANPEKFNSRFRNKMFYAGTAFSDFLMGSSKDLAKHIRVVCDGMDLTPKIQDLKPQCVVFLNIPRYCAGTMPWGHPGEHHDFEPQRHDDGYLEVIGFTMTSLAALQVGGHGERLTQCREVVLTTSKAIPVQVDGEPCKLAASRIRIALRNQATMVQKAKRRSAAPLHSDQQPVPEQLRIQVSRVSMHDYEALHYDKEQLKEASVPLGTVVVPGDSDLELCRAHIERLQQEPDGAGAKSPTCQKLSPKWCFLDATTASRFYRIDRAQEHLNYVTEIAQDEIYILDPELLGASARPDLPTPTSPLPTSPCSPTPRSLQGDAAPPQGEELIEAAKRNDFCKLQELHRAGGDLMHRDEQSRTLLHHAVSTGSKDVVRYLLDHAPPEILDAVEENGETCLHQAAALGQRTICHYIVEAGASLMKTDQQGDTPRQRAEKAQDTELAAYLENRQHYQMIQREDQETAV

SMILES	IC50 (DGKα) [µM]	IC50 (DGKζ) [µM]
CC(c1ccc2nccnc2c1)N1C[C@H](C)N(c2cc(=O)n(C)c3cc(CC#N)nn23)C[C@H]1C (mixture of isomers) [Compound A2, 2-(7-((2S,5R)-2,5-dimethyl-4-(1-(quinoxalin-6-yl)ethyl)piperazin-1-yl)-4-methyl-5-oxo-4,5-dihydropyrazolo[1,5-a]pyrimidin-2-yl)acetonitrile]	3.12	0.05
CC(c1ccc2nccnc2c1)N1C[C@H](C)N(c2cc(=O)n(C)c3cc(CC#N)nn23)C[C@H]1C (single isomer, unassigned) [Compound A2a]	> 10	1.71
CC(c1ccc2nccnc2c1)N1C[C@H](C)N(c2cc(=O)n(C)c3cc(CC#N)nn23)C[C@H]1C (single isomer, unassigned) [Compound A2b]	6.05	0.032
CC[C@@H]1CN(c2cc(=O)[nH]c3cc(CC#N)nn23)[C@@H](C)CN1C(C)c1ccc2nccnc2c1 (single isomer, unassigned) [Compound A4a]	64.9	0.153
CC[C@@H]1CN(c2cc(=O)[nH]c3cc(CC#N)nn23)[C@@H](C)CN1C(C)c1ccc2nccnc2c1 (single isomer, unassigned) [Compound A4b]	> 10	7.39
CC(c1ccc2c(c1)OC(C)(C)CO2)N1C[C@H](C)N(c2c(C#N)c(=O)n(C)c3cc(CC#N)nn23)C[C@H]1C (single isomer, unassigned) [Compound A12a]	12.5	0.011
CC(c1ccc2c(c1)OC(C)(C)CO2)N1C[C@H](C)N(c2c(C#N)c(=O)n(C)c3cc(CC#N)nn23)C[C@H]1C (single isomer, unassigned) [Compound A12b]	10.4	1.15
CC[C@@H]1CN(c2c(F)c(=O)n(C)c3cc(CC#N)nn23)[C@@H](C)CN1C(C)c1ccc(C2CC2)nc1 (single isomer, unassigned) [Compound A24a]	2.67	3.87
CC[C@@H]1CN(c2c(F)c(=O)n(C)c3cc(CC#N)nn23)[C@@H](C)CN1C(C)c1ccc(C2CC2)nc1 (single isomer, unassigned) [Compound A24b]	4.48	2.65
CC(c1ccc2nccnc2c1)N1CCC(c2cc(=O)n(C)c3cc(CC#N)nn23)C[C@H]1C (single isomer, unassigned) [Compound A33a]	> 10	> 10
CC(c1ccc2nccnc2c1)N1CCC(c2cc(=O)n(C)c3cc(CC#N)nn23)C[C@@H]1C (single isomer, unassigned) [Compound A34a]	> 150	5.71
CC(c1ccc2nccnc2c1)N1CCC(c2cc(=O)n(C)c3cc(CC#N)nn23)C[C@@H]1C (single isomer, unassigned) [Compound A34b]	> 150	> 10
CC[C@H]1CN(C(C)c2ccc3nc(C)sc3n2)[C@H](CC)CN1c1cc(=O)n(C)c2cc(CC#N)nn12 (single isomer, unassigned) [Compound A35a]	2.26	4.69
CC[C@H]1CN(C(C)c2ccc3nc(C)cn3n2)[C@H](CC)CN1c1cc(=O)n(C)c2cc(CC#N)nn12 (single isomer, unassigned) [Compound A38a]	3.88	> 10
CC[C@H]1CN(C(C)c2ccn3nc(F)cc3n2)[C@H](CC)CN1c1cc(=O)n(C)c2cc(CC#N)nn12 (single isomer, unassigned) [Compound A41b]	1.59	4.56
CC[C@H]1CN(C(C)c2ccc3nc(C)cn3n2)[C@H](CC)CN1c1nc(=O)n(C)c2cc(CC#N)nn12 (single isomer, unassigned) [Compound A45a]	1.88	> 10
CC[C@H]1CN(C(C)c2ccc3nc(C)c(F)n3n2)[C@H](CC)CN1c1nc(=O)n(C)c2cc(CC#N)nn12 (single isomer, unassigned) [Compound A48a]	5.33	> 10

Continued, values first:

IC50 (DGKα) [µM]	IC50 (DGKζ) [µM]	SMILES
0.233	0.021	CC[C@@H]1CN(c2cc(=O)n(C)c3cc(CC#N)nn23)[C@@H](C)CN1C(C)c1ccc2ncsc2c1 (single isomer, unassigned) [Compound A28a]
1.47	2.22	CC[C@@H]1CN(c2cc(=O)n(C)c3cc(CC#N)nn23)[C@@H](C)CN1C(C)c1ccc2ncsc2c1 (single isomer, unassigned) [Compound A28b]
0.212	0.042	CC[C@@H]1CN(c2cc(=O)n(C)c3cc(CC#N)nn23)[C@@H](C)CN1[C@@H](C)c1ccc2ncsc2n1 (single isomer, unassigned) [Compound A29a]
1.59	1.54	CC[C@@H]1CN(c2cc(=O)n(C)c3cc(CC#N)nn23)[C@@H](C)CN1[C@H](C)c1ccc2ncsc2n1 (single isomer, unassigned) [Compound A29b]
0.072	0.031	CC[C@H]1CN(C(C)c2ccc3nc(C)sc3n2)[C@H](CC)CN1c1cc(=O)n(C)c2cc(CC#N)nn12 (single isomer, unassigned) [Compound A35b]
0.2	1.58	CC[C@H]1CN(C(C)c2ccc3cc(C(F)F)sc3n2)[C@H](CC)CN1c1cc(=O)n(C)c2cc(CC#N)nn12 (single isomer, unassigned) [Compound A37a]
0.024	0.083	CC[C@H]1CN(C(C)c2ccc3cc(C(F)F)sc3n2)[C@H](CC)CN1c1cc(=O)n(C)c2cc(CC#N)nn12 (single isomer, unassigned) [Compound A37b]
0.205	0.469	CC[C@H]1CN(C(C)c2ccc3nc(C)cn3n2)[C@H](CC)CN1c1cc(=O)n(C)c2cc(CC#N)nn12 (single isomer, unassigned) [Compound A38b]
0.585	> 10	CC[C@H]1CN(C(C)c2ccn3nccc3n2)[C@H](CC)CN1c1cc(=O)n(C)c2cc(CC#N)nn12 (single isomer, unassigned) [Compound A39a]
0.052	0.104	CC[C@H]1CN(C(C)c2ccn3nccc3n2)[C@H](CC)CN1c1cc(=O)n(C)c2cc(CC#N)nn12 (single isomer, unassigned) [Compound A39b]
1.54	5.77	CC[C@H]1CN(C(C)c2ccn3nc(C)cc3n2)[C@H](CC)CN1c1cc(=O)n(C)c2cc(CC#N)nn12 (single isomer, unassigned) [Compound A40a]
0.061	0.053	CC[C@H]1CN(C(C)c2ccn3nc(C)cc3n2)[C@H](CC)CN1c1cc(=O)n(C)c2cc(CC#N)nn12 (single isomer, unassigned) [Compound A40b]
0.025	0.08	CC[C@H]1CN(C(C)c2ccn3nc(F)cc3n2)[C@H](CC)CN1c1cc(=O)n(C)c2cc(CC#N)nn12 (single isomer, unassigned) [Compound A41a]
0.066	0.116	CC[C@H]1CN(C(C)c2ccc3nc(C)cn3n2)[C@H](CC)CN1c1nc(=O)n(C)c2cc(CC#N)nn12 (single isomer, unassigned) [Compound A45b]
0.063	0.024	CC[C@H]1CN(C(C)c2ccc3nc(C)c(F)n3n2)[C@H](CC)CN1c1nc(=O)n(C)c2cc(CC#N)nn12 (single isomer, unassigned) [Compound A48b]
0.114	0.02	CC[C@H]1CN(C(C)c2ccc3nc(C)sc3c2)[C@H](CC)CN1c1nc(=O)n(C)c2cc(CC#N)nn12 (single isomer, unassigned) [Compound A53a]
0.947	0.552	CC[C@H]1CN(C(C)c2ccc3nc(C)sc3c2)[C@H](CC)CN1c1nc(=O)n(C)c2cc(CC#N)nn12 (single isomer, unassigned) [Compound A53b]
0.485	4.9	CC[C@H]1CN(C(C)c2ccn3nc(C4CC4)cc3n2)[C@H](CC)CN1c1nc(=O)n(C)c2cc(CC#N)nn12 (single isomer, unassigned) [Compound A54a]
0.069	0.019	CC[C@H]1CN(C(C)c2ccn3nc(C4CC4)cc3n2)[C@H](CC)CN1c1nc(=O)n(C)c2cc(CC#N)nn12 (single isomer, unassigned) [Compound A54b]
0.81	1	CC(c1ccc2nccnc2c1)N1C[C@H](C)N(c2cc(=O)n(C)c3cc(C#N)nn23)C[C@H]1C (stereo partly drawn) [Compound A1, 7-((2S,5R)-2,5-dimethyl-4-(1-(quinoxalin-6-yl)ethyl)piperazin-1-yl)-4-methyl-5-oxo-4,5-dihydropyrazolo[1,5-a]pyrimidine-2-carbonitrile]
